Results taken from US10836775B2, “6,6-fused heteroaryl piperidine ether allosteric modulators of the M4 muscarinic acetylcholine receptor” (Merck Sharp & Dohme Corp., priority 2016, dated 2020).

Molecular target: T1, human M4 muscarinic acetylcholine receptor (Homo sapiens, UniProt P08173)
T1 construct: expressed in transfected cells; host or cells: CHO-K1
T1 sequence (P08173 1-479): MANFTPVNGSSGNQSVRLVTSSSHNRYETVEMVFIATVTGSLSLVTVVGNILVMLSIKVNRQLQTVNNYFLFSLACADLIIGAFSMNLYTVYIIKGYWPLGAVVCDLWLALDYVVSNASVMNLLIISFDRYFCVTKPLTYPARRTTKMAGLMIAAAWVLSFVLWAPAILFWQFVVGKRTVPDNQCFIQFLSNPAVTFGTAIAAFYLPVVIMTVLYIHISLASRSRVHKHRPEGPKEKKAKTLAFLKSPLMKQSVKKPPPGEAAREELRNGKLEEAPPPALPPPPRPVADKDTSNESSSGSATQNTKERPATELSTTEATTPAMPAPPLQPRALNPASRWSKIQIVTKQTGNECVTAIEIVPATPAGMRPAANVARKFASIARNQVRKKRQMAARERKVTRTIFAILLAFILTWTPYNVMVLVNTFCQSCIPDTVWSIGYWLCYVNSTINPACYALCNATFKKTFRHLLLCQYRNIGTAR
Test: human FLIPR-based M4 PAM assay (CHO-K1 cells, human M4 receptor and Gαqi5, calcium dye fluorescence, acetylcholine at 20% of maximum)
Type: cell-based
Conditions: inflection point (IP) of 4 parameter logistic dose response curve; CHO-K1 cells with human M4 receptor and Gαqi5; FLIPR Tetra
Protocol: In a typical experiment the M4 muscarinic acetylcholine receptor modulating activity of the compounds of the present invention was determined in accordance with the following experimental method. […] On the day of assay, growth medium is removed, the cells are washed 2 times with wash buffer, and cells are incubated in dye loading buffer at 37° C., 5% CO2 for ˜1 hour. […] Next, 10 uL of acetylcholine is added (final concentration calculated so as to achieve 20% of the maximum acetycholine response), and the fluorescence reading is continued for 3.5 min. In some cases, a third addition of acetylcholine (final concentration calculated to achieve 70% of the maximal acetylcholine response) is performed. The resulting dose response curves are fit to a 4 parameter logistic equation and the final result is determined as the inflection point (IP) of the curve
CHO-K1 cells stably transfected with human M4 receptor and chimeric G-protein Gαqi5 are thawed from liquid N2 storage, resuspended in growth medium, plated in black, clear bottom 384 well plates, and incubated 16-20 hours at 37° C., 5% CO2.
On the day of assay, growth medium is removed, the cells are washed 2 times with wash buffer, and cells are incubated in dye loading buffer at 37° C., 5% CO2 for ˜1 h. […] Next, 10 uL of acetylcholine is added (final concentration calculated so as to achieve 20% of the maximum acetycholine response), and the fluorescence reading is continued for 3.5 min. In some cases, a third addition of acetylcholine (final concentration calculated to achieve 70% of the maximal acetylcholine response) is performed.

EC50 [nM]	SMILES
272	COc1ccc(OC2CCN(c3nc4c(cc3C)CNC(=O)N4)CC2)cn1 [Example 48, 7-(4-((6-Methoxypyridin-3-yl)oxy)piperidin-1-yl)-6-methyl-3,4-dihydropyrido[2,3-d]pyrimidin-2(1H)-one]
213	Cc1cc2c(=O)[nH]cnc2nc1N1CCC(Oc2cccnc2)CC1 [Example 16, 6-methyl-7-(4-(pyridin-3-yloxy)piperidin-1-yl)pyrido[2,3-d]pyrimidin-4(3H)-one]
155	COc1ccc(OC2CCN(c3nc4nc(C)n(C)c(=O)c4cc3C)CC2)cn1 [Example 40, 7-(4-((6-methoxypyridin-3-yl)oxy)piperidin-1-yl)-2,3,6-trimethyl-pyrido[2,3-d]pyrimidin-4(3H)-one]
71	CCc1cc2c(=O)[nH]ncc2nc1N1CCC(Oc2ccc(OC)nc2)CC1 [Example 37, 3-ethyl-2-(4-((6-methoxypyridin-3-yl)oxy)piperidin-1-yl)pyrido[2,3-d]pyridazin-5(6H)-one]
42	CCc1cc2c(=O)[nH]c(=O)[nH]c2nc1N1CCC(OCC2(C)CC2)CC1 [Example 31, 6-ethyl-7-(4-((1-methylcyclopropyl)methoxy)piperidin-1-yl)pyrido[2,3-d]pyrimidine-2,4(1H,3H)-dione]
18	Cc1cc2c(=O)[nH]ncc2nc1N1CCC(OCC2(C)CC2)CC1 [Example 24, 3-methyl-2-(4-((1-methylcyclopropyl)methoxy)piperidin-1-yl)pyrido[2,3-d]pyridazin-5(6H)-one]
50	Cc1nc2nc(N3CCC(OCC4(C)CC4)CC3)c(C)cc2c(=O)[nH]1 [Example 20, 2,6-dimethyl-7-(4-((1-methylcyclopropyl)methoxy)piperidin-1-yl)pyrido[2,3-d]pyrimidin-4(3H)-one]
46	COc1ccc(OC2CCN(c3nc4cnn(CO)c(=O)c4cc3C)CC2)cn1 [Example 51, 6-(Hydroxymethyl)-2-(4-((6-methoxypyridin-3-yl)oxy)piperidin-1-yl)-3-methylpyrido[2,3-d]pyridazin-5(6H)-one]
53	Cc1cc2c(=O)[nH]ncc2nc1N1CCC(Oc2cnc3c(c2)COC3)CC1 [Example 29, 2-(4-((5,7-dihydrofuro[3,4-b]pyridin-3-yl)oxy)piperidin-1-yl)-3-methylpyrido[2,3-d]pyridazin-5(6H)-one]
95	COCc1nc2nc(N3CCC(Oc4ccc(OC)nc4)CC3)c(C)cc2c(=O)[nH]1 [Example 28, 2-(methoxymethyl)-7-(4-((6-methoxypyridin-3-yl)oxy)piperidin-1-yl)-6-methylpyrido[2,3-d]pyrimidin-4(3H)-one]
70	COc1ccc(OC2CCN(c3nc4cc(C)oc(=O)c4cc3C)CC2)cn1 [Example 55, 2-(4-((6-Methoxypyridin-3-yl)oxy)piperidin-1-yl)-3,7-dimethyl-5H-pyrano[4,3-b]pyridin-5-one]
26	Cc1cc2c(=O)[nH]ncc2nc1N1CCC(Oc2cccc(C#N)c2)CC1 [Example 21, 3-((1-(3-methyl-5-oxo-5,6-dihydropyrido[2,3-d]pyridazin-2-yl)piperidin-4-yl)oxy)benzonitrile]
453	COc1ccc(OC2CCN(c3nc4c(cc3C)C(=O)N(Cc3ccncc3)CC4)CC2)cn1 [Example 3, 2-(4-((6-methoxypyridin-3-yl)oxy)piperidin-1-yl)-3-methyl-6-(pyridin-4-ylmethyl)-7,8-dihydro-1,6-naphthyridin-5(6H)-one]
361	Cc1cc2c(=O)n(C)c(C)nc2nc1N1CCC(Oc2cnc3c(c2)COC3)CC1 [Example 45, 7-(4-((5,7-dihydrofuro[3,4-b]pyridin-3-yl)oxy)piperidin-1-yl)-2,3,6-trimethyl-pyrido[2,3-d]pyrimidin-4(3H)-one]
133	Cc1cc2c(=O)n(CCO)ncc2nc1N1CCC(OCC2(C)CC2)CC1 [Example 43, 6-(2-hydroxyethyl)-3-methyl-2-(4-((1-methylcyclopropyl)methoxy)piperidin-1-yl)pyrido[2,3-d]pyridazin-5(6H)-one]
210	COc1ccc(OC2CCN(c3nc4c(cnc(=O)n4C)cc3C)CC2)cn1 [Example 49, 7-(4-((6-Methoxypyridin-3-yl)oxy)piperidin-1-yl)-1,6-dimethylpyrido[2,3-d]pyrimidin-2(1H)-one]
254	Cc1cc2c(=O)[nH]ncc2nc1N1CCC(OCC2CCCC2)CC1 [Example 18, 2-(4-(cyclopentyl-methoxy)piperidin-1-yl)-3-methylpyrido[2,3-d]pyridazin-5(6H)-one]
236	Cc1cc2c(=O)[nH]c(=O)[nH]c2nc1N1CCC(OCC2CCC2)CC1 [Example 32, 7-(4-(cyclobutyl-methoxy)piperidin-1-yl)-6-methylpyrido[2,3-d]pyrimidine-2,4(1H,3H)-dione]
19	Cc1cc2c(=O)[nH]c(=O)[nH]c2nc1N1CCC(OCC2(C)CC2)CC1 [Example 25, 6-methyl-7-(4-((1-methylcyclopropyl)methoxy)piperidin-1-yl)pyrido[2,3-d]pyrimidine-2,4(1H,3H)-dione]
366	COc1ccc(OC2CCN(c3nc4c(cc3C)c(=O)[nH]c(=O)n4C)CC2)cn1 [Example 5, 7-(4-((6-Methoxypyridin-3-yl)oxy)piperidin-1-yl)-1,6-dimethylpyrido[2,3-d]pyrimidine-2,4(1H,3H)-dione]
90	Cc1cc2c(=O)[nH]c(=O)[nH]c2nc1N1CCC(Oc2cnn(C)c2)CC1 [Example 26, 6-methyl-7-(4-((1-methyl-1H-pyrazol-4-yl)oxy)piperidin-1-yl)pyrido[2,3-d]pyrimidine-2,4(1H,3H)-dione]
78	COc1ccc(OC2CCN(c3nc4[nH]c(=O)oc(=O)c4cc3C)CC2)cn1 [Example 47, 7-(4-((6-Methoxypyridin-3-yl)oxy)piperidin-1-yl)-6-methyl-2H-pyrido[2,3-d][1,3]oxazine-2,4(1H)-dione]

SMILES	EC50 [nM]
Cc1cc2c(=O)[nH]c(=O)[nH]c2nc1N1CCC(OCC(C)C)CC1 [Example 36, 7-(4-isobutoxy-piperidin-1-yl)-6-methylpyrido[2,3-d]pyrimidine-2,4(1H,3H)-dione]	138
